# From patent US20200323898A1, “COMPOSITIONS AND METHODS FOR TREATING ACUTE MYELOID LEUKEMIA” (MEMORIAL SLOAN KETTERING CANCER CENTER, priority 2017, published 2020)
# Read-outs that look alike come from different tables or passages of the source.
# What was measured:
# [1] = tested on: Nras(G12D)/MLL-AF9 leukemic cells; assay: Viability of Nras(G12D)/MLL-AF9 leukemic cells cultured with AOA or myriocin; type: cell-based, mouse; conditions: day 3 (FIG. 33A, 34A)
# [2] = tested on: human HL60 (Human promyelocytic leukemia) cells; assay: Human HL60 cells cultured with myriocin; type: cell-based; conditions: day 4 of culture (FIG. 33B)
# PLP = assay: Intracellular PLP levels by HPLC-MS in Nras(G12D)/MLL-AF9 leukemic cells cultured with isoniazid; type: cell-based, mouse; conditions: day 5 of culture, HPLC-MS (FIG. 2E)
# Method: The abundance of PLP was measured by high-performance liquid chromatography-mass spectrometry (HPLC-MS) and normalized to the level [^3D]-labeled PLP (internal control). The average and STDEV are shown. Western blot analysis was performed to measure the expression levels of PDXK protein.
# (§1) LC-MS grade solvents were purchased from Thermo Fisher Scientific (Waltham, Mass.), metabolite standards were purchased from Sigma (St. Louis, Mo.) unless stated otherwise. Nras(G12D)/MLL-AF9 cells infected with viruses encoding Pdxk shRNAs were harvested after 5 days of doxycycline induction. Human MOLM13 cells infected with viruses encoding Pdxk sgRNAs were harvested at day 11 post infection. Nras(G12D)/MLL-AF9 cells or MOLM13 cells were treated with indicated concentrations of isoniazid and harvested after 5 days treatment.
# In each case, 2 million cells were collected by centrifugation at 440×g, media was aspirated and 1004 of ice-cold 10% trichloroacetic acid with or without 100 ng/mL d3-pyridoxal (d3-PL), d3-pyridoxine (d3-PN), d3-pyridoxamine (d3-PM), d3-pyridoxal phosphate (d3-PLP) (IsoSciences LLC, Ambler Pa.) was added for metabolite extraction. For experiments involving isoniazid treatment, cells were washed once with PBS to remove residual drug and minimize post-lysis reactions between isoniazid and PLP, which was confirmed by monitoring the d3-PLP internal standard. […]
# mouse leukemic cells = assay: Proliferation of mouse leukemic cell lines cultured with compound; type: cell-based; conditions: mouse leukemic cell lines with different genetic drivers, day 6 (FIG. 1I)
# Method: Mouse AML cell lines, human AML cell lines, iMEF cell line and 3T3 cell line were infected with virus encoding Cas9 (Addgene 52962, Watertown Mass.) followed with blastcitidin selection to generate Cas9 cell lines. All viral sgRNA infection experiments were performed on Cas9 cell lines. All viral shRNA infection experiments were performed on cell lines carrying rtTA3. Mouse leukemic cell lines including Nras(G12D)/MLL-AF9, MLL-AF9, Nras(G12D)/IDH, Nras(G12D)/NPM1, and IDH/Flt3 were cultured in RPMI medium supplemented with 10% Fetal Bovine Serum (FBS), L-glutamine, penicillin streptomycin, recombinant mouse SCF, IL-3 and IL-6. Human leukemic cell lines MOLM13, M12, Semk2, THP1, and K562 were cultured in RPMI medium supplemented with 10% FBS, L-glutamine, penicillin, and streptomycin. Vitamin B6 depleted medium (VB6−) was prepared by customized pyridoxin (−) RPMI (Gibco, Gaithersburg, Md.) with 10% dialyzed FBS, L-glutamine, penicillin, and streptomycin. […]
# For competition and cell proliferation experiments, mouse or human leukemic cells were infected with viruses encoding sgRNAs or shRNAs. […] GFP+ percentage or cell number was monitored during culture using guava flow cytometer. The absolute cell number was measured by using flow cytometry absolute count standard (Bangs Laboratories Inc., Fishers Ind.). The experimental results were analyzed by guavasoft software.
# human leukemic cells = assay: Proliferation / growth of human leukemic cell lines cultured with compound; type: cell-based; conditions: for growth of human AML cells in vitro: indicated leukemic cell lines (FIG. 17C, 18C)
# Method: The average and STDEV of relative cell proliferation are shown.
# Mouse AML cell lines, human AML cell lines, iMEF cell line and 3T3 cell line were infected with virus encoding Cas9 (Addgene 52962, Watertown Mass.) followed with blastcitidin selection to generate Cas9 cell lines. All viral sgRNA infection experiments were performed on Cas9 cell lines. All viral shRNA infection experiments were performed on cell lines carrying rtTA3. Mouse leukemic cell lines including Nras(G12D)/MLL-AF9, MLL-AF9, Nras(G12D)/IDH, Nras(G12D)/NPM1, and IDH/Flt3 were cultured in RPMI medium supplemented with 10% Fetal Bovine Serum (FBS), L-glutamine, penicillin streptomycin, recombinant mouse SCF, IL-3 and IL-6. Human leukemic cell lines MOLM13, M12, Semk2, THP1, and K562 were cultured in RPMI medium supplemented with 10% FBS, L-glutamine, penicillin, and streptomycin. Vitamin B6 depleted medium (VB6−) was prepared by customized pyridoxin (−) RPMI (Gibco, Gaithersburg, Md.) with 10% dialyzed FBS, L-glutamine, penicillin, and streptomycin. Pyridoxin hydrochloride (Sigma, St Louis Mo.) was added back to VB6(−) medium to make the VB6 (+) medium used for leukemia and MEF culture. Control or gene targeting sgRNAs or shRNAs were delivered by lentivirus. Spin infections were performed at 37° C. and 1500 RPM for 60 minutes. After spin infection, viral supernatants were substituted with leukemic cell culture medium. For compound treatment, isoniazid was added in culture medium at indicated concentrations.
# For competition and cell proliferation experiments, mouse or human leukemic cells were infected with viruses encoding sgRNAs or shRNAs. Spin infections were performed at 37 degree and 1500 RPM for 60 minutes. After spin infection, viral supernatants were substituted with leukemic cell culture medium. GFP+ percentage or cell number was monitored during culture using guava flow cytometer. The absolute cell number was measured by using flow cytometry absolute count standard (Bangs Laboratories Inc., Fishers Ind.). The experimental results were analyzed by guavasoft software.
# bone marrow HSPCs = assay: Proliferation of bone marrow HSPCs cultured with compound; type: cell-based, mouse
# Text: The average and STDEV of relative cell proliferation of 3 replicates are shown.
# Bone marrow hematopoietic stem and progenitor cell isolation, culture, and compound treatment. For isolation of bone marrow cells, the bone marrow from the femur and tibia was flushed into ice cold PBS buffer. After red blood cell lysis with ammonium chloride (STEMCELL 07850, Vancouver Canada), the bone marrow cells were resuspended with PBS and filtered into a round bottom tube with cell strainer cap. The hematopoietic cells lineages were stained with biotin mouse lineage panel (BD Biosciences 559971, San Jose Calif.), then isolated by magnetic beads separation. For c-Kit positive cells, mouse hematopoietic cells were isolated from bone marrow using MACS CD117 isolation system. Purified bone marrow cells were cultured in RPMI medium supplemented with recombinant mouse SCF, IL-3, and IL-6. Control or Pdxk targeting sgRNAs or shRNAs were delivered by lentivirus. Spin infections were performed at 37 degree and 1500 RPM for 60 minutes. After spin infection, viral supernatants were substituted with leukemic cell culture medium. For compound treatment, isoniazid was added in culture at indicated concentrations.
# [3] = tested on: Nras(G12D)/MLL-AF9 leukemia; assay: AML mouse model: sub-lethally irradiated mice transplanted with Nras(G12D)/MLL-AF9 cells, compound treatment; type: in vivo; conditions: for animal survival / leukemia disease progression (luciferase signal): daily dosing vs PBS control, isoniazid 90 mg/kg intraperitoneally
# Text: PDXK shRNAs were cloned into a doxycycline inducible H2 vector (D9891-25G, Sigma-Aldrich, St. Louis, Mo.). Leukemic cells were infected with viruses encoding shRNAs targeting Renilla luciferase or PDXK, followed by either in vitro culture or transplantation. For in vitro culture experiments, doxycycline was supplemented into culture medium, and the percentage of GFP^+ cells was monitored. For in vivo AML mouse model experiments, the dietary feed of the mice was supplemented with doxycycline, and luciferase expression levels were monitored. For in vivo drug efficacy experiments, leukemic cells were transplanted into sub-lethally irradiated mice. Control PBS or isoniazid (90 mg/kg) was injected 6 hours after transplant and then daily into the transplant containing mice, and luciferase expression levels were monitored. High-performance liquid chromatography-mass spectrometry (HPLC-MS) was performed as previously described in A. M. Intlekofer et al., Nat Chem Biol 13, 494-500 (2017).
# For isoniazid injection experiment, Nras(G12D)/MLL-AF9 leukemic cells were collected and resuspended in PBS at a concentration of 5 million/ml. 5-6 weeks old B6-LY5 mice (Charles River Labs, Wilmington Mass.) were sublethally irradiated (450 cGy) and transplanted with 1 million leukemic cells through tail vein injection. PBS or 90 mg/kg isoniazid were intraperitoneally injected daily.
# The leukemia disease progress was monitored by in vivo bioluminescent imaging using IVIS Lumina image system (Xenogen) every 3 days. Before imaging, all mice were anesthetized with 2% isoflurane, and anesthesia was also maintained during the image acquisition inside Xenogen dark chamber. 300 mg/kg D-Luciferin (Gold Biotechnology Olivette, Mo.) in PBS at 15 mg/ml was intraperitoneally injected ˜12 minutes before image capturing. The bioluminescence was acquired and quantitatively analyzed by the Living Image software.
# [4] = tested on: Nras(G12D)/MLL-AF9 leukemic cells; assay: Metabolite rescue of isoniazid proliferative block in Nras(G12D)/MLL-AF9 leukemic cells; type: cell-based, mouse; conditions: exogenous addition of metabolite with isoniazid, day 4 (FIG. 4D-4F)
# Text: The average and SEM of fold of cell proliferation are shown. “*” represents p<0.05 of one-way ANOVA test, “**” represents p<0.01 of one-way ANOVA test, “***” represents p<0.001 of one-way ANOVA test. […] The average and SEM of fold of cell proliferation are shown. “*” represents p<0.05 of one-way ANOVA test, “**” represents p<0.01 of one-way ANOVA test, “***” represents p<0.001 of one-way ANOVA test. […] The average and SEM of fold of cell proliferation are shown. “*” represents p<0.05 of one-way ANOVA test, “**” represents p<0.01 of one-way ANOVA test, “***” represents p<0.001 of one-way ANOVA test.
# PDXK = molecular target: T1, PDXK (Homo sapiens, UniProt O00764); assay: Intracellular PLP levels (PDXK inhibition) in human Molm13 leukemic cells; type: cell-based; conditions: human Molm13 leukemic cells (FIG. 17B, 18B)
# T1 construct: endogenous in cells; host or cells: human Molm13 (MOLM13) AML cells
# T1 sequence (O00764 1-312): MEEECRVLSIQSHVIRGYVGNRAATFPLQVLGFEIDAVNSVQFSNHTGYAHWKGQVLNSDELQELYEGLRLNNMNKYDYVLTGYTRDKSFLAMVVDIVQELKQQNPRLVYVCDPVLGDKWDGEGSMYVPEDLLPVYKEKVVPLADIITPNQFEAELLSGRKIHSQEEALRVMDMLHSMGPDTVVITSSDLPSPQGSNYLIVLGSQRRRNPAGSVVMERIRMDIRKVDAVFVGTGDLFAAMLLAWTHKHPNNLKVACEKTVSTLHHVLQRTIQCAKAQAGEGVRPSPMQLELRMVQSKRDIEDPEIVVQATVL
# Method: as §1
# In each case, 2 million cells were collected by centrifugation at 440×g, media was aspirated and 1004 of ice-cold 10% trichloroacetic acid with or without 100 ng/mL d3-pyridoxal (d3-PL), d3-pyridoxine (d3-PN), d3-pyridoxamine (d3-PM), d3-pyridoxal phosphate (d3-PLP) (IsoSciences LLC, Ambler Pa.) was added for metabolite extraction. For experiments involving isoniazid treatment, cells were washed once with PBS to remove residual drug and minimize post-lysis reactions between isoniazid and PLP, which was confirmed by monitoring the d3-PLP internal standard. After overnight incubation at −80° C., samples were vortexed and transferred to 1.7 mL conical eppendorf tubes and centrifuged at 21,000×g for 20 min at 4° C. The supernatant was transferred to autosampler vials for LC-MS analysis. Vitamin B species separation was performed using an Agilent 1290 infinity pump and XSelect HSS T3 column (150×2.1 mm, 3.5 μm; Waters Corporation, Milford Mass.). Mobile phase A was 0.1% heptaflurobutyric acid (HFBA, Thermo Fisher, Waltham Mass.) and 0.1% formic acid (FA, Thermo Fisher, Waltham Mass.) in water, mobile phase B was 0.1% HFBA and 0.1% FA in acetonitrile. The injection volume was 10 μL and LC gradient conditions were: 0 min: 0% B; 1 min: 0% B; 7 min: 25% B; 8 min: 25% B; 9 min: 100% B; 10.5 min: 100% B, with 4.5 min of re-equilibration time. MS detection was performed using an Agilent 6230 TOF accurate mass spectrometer with Dual JetStream source operating in positive ionization mode. MS parameters were: gas temp 250° C.; gas flow: 13 L/min; nebulizer pressure: 45 psig; sheath gas temp: 225° C.; sheath gas flow: 12 L/min; VCap: 3,500 V; Fragmentor: 175 V; Skimmer: 65 V; Octopole RF: 750 V. Active mass axis correction was performed using a second nebulizer and pyridine (80.049480) and roxithromycin (837.53185). Data was acquired from m/z 50-1700 at 1.5 spectra/sec. Accurate mass (±20 ppm) and retention time was confirmed relative to the pure standards. Data analysis was performed using MassHunter software (Agilent, Santa Clara Calif.).
compound,measurement,setting,value
CCCCCCC(=O)CCCCCC/C=C/C[C@@H](O)[C@H](O)[C@@](N)(CO)C(=O)O [myriocin],viability of leukemic cells in vitro,[1],reduced the viability
same,sensitivity of HL60 cells to treatment,[2],less sensitive
NNC(=O)c1ccncc1 [isoniazid],intracellular PLP levels,PLP,reduced intracellular PLP levels
same,proliferation of mouse leukemic cells,mouse leukemic cells,blocked proliferation
same,proliferation of human leukemic cells,"human leukemic cells; human leukemic cell lines, day 6 of culture (FIG. 7G, 25A-25C)",blocked proliferation
same,proliferation of bone marrow HSPCs,bone marrow HSPCs,only a subtle reduction
same,proliferation of bone marrow lineage negative HSPCs,bone marrow HSPCs,little effect
same,animal survival,[3],produced a survival advantage
same,leukemia disease progression (luciferase signal),[3],delayed disease progression
same,reduction of PLP in plasma and bone marrow cells,"[3]; isoniazid 90 mg/kg intraperitoneally daily, day 12 post transplant, HPLC-MS (FIG. 13B)",~25%
NC(=O)C[C@H](N)C(=O)O [asparagine],rescue of proliferative block produced by isoniazid,[4],partially rescued
COCc1c(CO)cnc(C)c1O [gingkotoxin],PDXK inhibition,PDXK,can inhibit PDXK
same,intracellular levels of PLP,PDXK,reduced intracellular levels of PLP
same,intracellular levels of PLP,PDXK; listed as ginkgotoxin,reduce intracellular levels of PLP
same,growth of human AML cells in vitro,human leukemic cells,suppressed tumor growth
same,growth of human AML cells in vitro,human leukemic cells; listed as ginkgotoxin,can suppress the growth
same,proliferation of bone marrow lineage negative HSPCs,"bone marrow HSPCs; bone marrow lineage negative HSPCs, day 6 (FIG. 26A-26B)",little effect
same,animal survival,[3],improved survival
same,leukemia disease progression (luciferase signal),[3],slowed down disease progression
